Laboratory results taken from paper PMC4657054, “First Structural View of a Peptide Interacting with the Nucleotide Binding Domain of Heat Shock Protein 90” (Scientific Reports, 2015).
Residues, ends and D or L forms follow the SMILES beside them. No end group written: not given here.

What was measured:
[1] = target: T1, HspD (Hsp90 of Dictyostelium discoideum) (Dictyostelium discoideum, UniProt P54651); experiment: ATPase activity of HspD (pRSET A construct) in presence of peptide; format: biochemical; conditions: for inhibition of ATPase activity of HspD: pre-incubation 0.5 h room temperature, reaction 37 °C 1 h
T1 construct: We had earlier reported the activity studies of the full length protein; hexahistidine tag (N); pRSET A vector linker containing Gly-Arg-Asp-Leu-Tyr-Asp-Asp (N); made in house; host or cells: E. coli Rosetta
T1 sequence (P54651 whole entry): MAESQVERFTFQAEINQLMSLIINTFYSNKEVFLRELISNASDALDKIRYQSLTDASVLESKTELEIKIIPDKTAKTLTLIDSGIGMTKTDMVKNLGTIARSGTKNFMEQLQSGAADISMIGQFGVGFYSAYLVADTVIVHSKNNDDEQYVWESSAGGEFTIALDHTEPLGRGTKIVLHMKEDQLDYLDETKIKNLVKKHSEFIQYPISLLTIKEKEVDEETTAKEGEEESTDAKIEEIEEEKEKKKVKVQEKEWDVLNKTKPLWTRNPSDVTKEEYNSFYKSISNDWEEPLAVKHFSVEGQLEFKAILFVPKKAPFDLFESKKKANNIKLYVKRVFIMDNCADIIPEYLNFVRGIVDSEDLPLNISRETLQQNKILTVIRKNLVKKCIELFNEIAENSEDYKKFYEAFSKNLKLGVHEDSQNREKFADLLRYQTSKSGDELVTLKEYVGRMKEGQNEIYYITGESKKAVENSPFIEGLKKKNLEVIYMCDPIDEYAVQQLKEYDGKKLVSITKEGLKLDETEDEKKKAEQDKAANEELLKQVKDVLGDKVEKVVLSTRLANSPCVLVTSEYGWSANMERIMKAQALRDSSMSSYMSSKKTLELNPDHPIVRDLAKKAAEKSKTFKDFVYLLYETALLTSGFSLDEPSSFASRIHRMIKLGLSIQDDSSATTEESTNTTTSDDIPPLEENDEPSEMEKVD
Experimental: ATPase assay for HspD was carried out in presence of varying concentrations of the peptide and fixed ATP concentration of 500 μM. In presence of the peptide, there is a significant dose dependent inhibition of ATPase activity of HspD, starting from 5 mM concentration of the peptide (Fig. 5a).
(§1) The genes for HspD and HspD-NTD were cloned into pRSET A vector, using the following primers: 5′ […] 3′ as forward primer and 5′ […] 3′ as reverse primer for HspD as described previously, and 5′ […] 3′ as forward primer and 5′[…] 3′ as reverse primer for HspD-NTD, containing BamHI and XhoI sites (underlined) in forward and reverse primers, respectively. The proteins, HspD and HspD-NTD, were expressed as hexa histidine tagged fusion proteins in E. coli Rosetta strain. The cells were grown in Terrific broth and induced with 1 mM isopropyl β-D-1-thiogalactopyranoside at 15 °C for 15 hours. The proteins were purified by nickel-NTA affinity chromatography. The column was washed with imidazole gradient ranging from 5 mM to 30 mM in 50 mM Tris, pH 7.5, 500 mM NaCl, buffer. The proteins were finally eluted with 300 mM imidazole, followed by gel filtration with Sephacryl S-200 HR column and stored in 25 mM Tris and 200 mM NaCl, pH 7.5 buffer. The clone for human Hsp90 in pRSET A vector was expressed in E. coli Rosetta strain, and the protein was purified to homogeneity by nickel-NTA affinity chromatography, as described previously[31] and dialysed to exchange buffer containing 40 mM Tris-Cl, pH 7.5, 100 mM KCl and 5 mM MgCl2 for the ATPase assay. For the new construct the gene for HspD and HspD-NTD were cloned in pET-28a vector, which lacks the bound peptide sequence. The proteins were expressed and purified using the same protocol as described above.
In order to check the effect of the peptide binding on the ATPase activity of HspD and human Hsp90, purified proteins (2 μM) were incubated with varying peptide concentrations in 40 mM Tris–Cl buffer, pH 7.4, containing 100 mM KCl and 5 mM MgCl2, at room temperature for half hour. ATPase reaction was carried out in the presence of fixed ATP concentration of 500 μM at 37 °C for one hour. γ-^32P-ATP with a specific activity of 0.55 Ci/mmol was used as a tracer. ATP hydrolysis was monitored on a PEI- cellulose TLC plate. Fractional cleavage of ATP was calculated for each peptide concentration. ATPase activity of Hsp90 alone was considered 100%, and percent change in ATPase activity was plotted against peptide concentration.

[2] = target: T2, HspD, new construct (pET-28a) (Dictyostelium discoideum, UniProt P54651); experiment: ATPase activity of new construct of HspD (pET-28a, lacking the linker peptide sequence) in presence of peptide; format: biochemical; conditions: 13.5 mM peptide (highest concentration), pET-28a construct, 500 μM ATP, mean ± SEM, n = 2
T2 construct: made in house; host or cells: E. coli Rosetta (same protocol)
T2 sequence (P54651 whole entry): as above
Experimental: Bio-Layer Interferometry experiments were carried out to check the binding of the peptide RELWDD. […] The peptide can be further modified to improve the binding efficacy, thereby reducing the inhibitory concentration required to inhibit Hsp90 function.
The genes for HspD and HspD-NTD were cloned into pRSET A vector, using the following primers: 5′ […] 3′ as forward primer and 5′ […] 3′ as reverse primer for HspD as described previously, and 5′ […] 3′ as forward primer and 5′[…] 3′ as reverse primer for HspD-NTD, containing BamHI and XhoI sites (underlined) in forward and reverse primers, respectively. The proteins, HspD and HspD-NTD, were expressed as hexa histidine tagged fusion proteins in E. coli Rosetta strain. The cells were grown in Terrific broth and induced with 1 mM isopropyl β-D-1-thiogalactopyranoside at 15 °C for 15 hours. The proteins were purified by nickel-NTA affinity chromatography. […]
(§2) In order to check the effect of the peptide binding on the ATPase activity of HspD and human Hsp90, purified proteins (2 μM) were incubated with varying peptide concentrations in 40 mM Tris–Cl buffer, pH 7.4, containing 100 mM KCl and 5 mM MgCl2, at room temperature for half hour. […] ATP hydrolysis was monitored on a PEI- cellulose TLC plate. Fractional cleavage of ATP was calculated for each peptide concentration. […]

[3] = target: T3, HspD-NTD (pET-28a construct lacking the linker peptide) (Dictyostelium discoideum, UniProt P54651); experiment: biochemical; format: binding
T3 construct: the crystal structure of the N-terminal domain of HspD (HspD-NTD); made in house; host or cells: E. coli Rosetta (same protocol)
T3 sequence (P54651 1-225 limits assumed): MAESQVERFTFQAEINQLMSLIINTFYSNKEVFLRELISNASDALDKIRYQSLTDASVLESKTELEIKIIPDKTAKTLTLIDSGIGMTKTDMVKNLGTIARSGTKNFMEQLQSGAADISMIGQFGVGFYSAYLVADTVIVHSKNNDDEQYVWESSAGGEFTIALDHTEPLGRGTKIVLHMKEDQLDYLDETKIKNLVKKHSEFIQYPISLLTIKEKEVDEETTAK
Experimental: The binding of the peptide RELWDD to HspD-NTD construct lacking the linker peptide was measured by Bio-Layer Interferometry using an Octet RED96 instrument (ForteBio, Inc.). The peptide was immobilized onto Amine Reactive Second-Generation (AR2G) Biosensors. Binding studies were performed by dipping the biosensors in varying concentrations of HspD-NTD. An equal number of unliganded sensors was used as control, to account for non-specific binding. The traces were processed using ForteBio Data Analysis Software, ver. 8.0.3.5, exported and fit globally using Biaevaluation 3.0.1. A simple 1:1 Langmuir interaction model was used for fitting the data.
Figure S1. Binding of HspD-NTD to the peptide RELWDD using Bio-layer Interferometry.
concentrations of the protein.
(1 picture or pasted object on this page, not shown here)

[4] = target: T4, human Hsp90 (Homo sapiens, UniProt P07900); experiment: ATPase activity of human Hsp90 in presence of peptide; format: biochemical; design: made in house; host or cells: E. coli Rosetta; conditions: human Hsp90 2 μM, 500 μM ATP
Experimental: Lys47 of HspD-NTD is observed to be in a different rotamer conformation as compared to Lys58 of the human isoform, due to the former’s interaction with the residues of the peptide. Lys58 of the human Hsp90 is likely to adopt a similar conformation in the presence of a similar peptide. The water molecules interacting with Asn40 and Asp82 in the case of HspD-NTD are also found to be conserved in human Hsp90-NTD structure. […] In order to validate this, ATPase assay was performed for human Hsp90 in the presence of the modified peptide. […] This observation that the peptide binds to the NTD and inhibits its ATPase activity paves way for the development of new class of peptide-based inhibitors for Hsp90.
as §1, with “The clone for human Hsp90 in pRSET A vector was expressed in E. coli Rosetta strain, and the protein was purified to homogeneity by nickel-NTA affinity chromatography, as described previously[31] and dialysed to exchange buffer containing 40 mM Tris-Cl, pH 7.5, 100 mM KCl and 5 mM MgCl2 for the ATPase assay. For the new construct the gene for HspD and HspD-NTD were cloned in pET-28a vector, which lacks the bound peptide sequence. The proteins were expressed and purified using the same protocol as described above.” left out
as §2

[5] = target: Hsp90 of Dictyostelium discoideum (HspD), full length, pRSET A construct (Dictyostelium discoideum) (UniProt P54651)
Chain of Hsp90 of Dictyostelium discoideum (HspD), full length, pRSET A construct (Dictyostelium discoideum) (P54651 whole entry): as the sequence (P54651 whole entry) above

[6] = target: T4, human Hsp90
[7] = target: new construct of HspD, full length, in pET-28a (Dictyostelium discoideum) (UniProt P54651)
Chain of new construct of HspD, full length, in pET-28a (Dictyostelium discoideum) (P54651 whole entry, the tested form may be a part): as the sequence (P54651 whole entry) above

[8] = target: T5, N-terminal domain of Hsp90 of Dictyostelium discoideum (HspD-NTD), pRSET A construct (Dictyostelium discoideum, UniProt P54651 1-225); experiment: crystal structure; hanging drop, 15 mg/mL HspD-NTD, 0.1 M HEPES pH 7.0-8.0, 10-30% PEG3350; no peptide added, the peptide comes from the vector stretch of the fusion protein; 1.2 Å; conditions: both partners purified
T5 construct: 'a total of 225 residues', the first 214 seen in the density; forward primer starts at the ATG of the gene, reverse primer encodes ...ETTAK-stop; Expressed from pRSET A with a vector stretch (holding GRDLYDD) between the N-terminal hexahistidine tag and the NTD; source: E. coli Rosetta, purified (nickel-NTA, gel filtration on Sephacryl S-200 HR)
T5 sequence (P54651 1-225): as the sequence (P54651 1-225 limits assumed) above

CC(C)C[C@H](NC(=O)[C@H](CCC(=O)O)NC(=O)[C@@H](N)CCCNC(=N)N)C(=O)N[C@@H](Cc1c[nH]c2ccccc12)C(=O)N[C@@H](CC(=O)O)C(=O)N[C@@H](CC(=O)O)C(=O)O [RELWDD, Arg-Glu-Leu-Trp-Asp-Asp] (H-RELWDD-OH)
inhibition of ATPase activity of HspD ([1]; 10 mM peptide, HspD 2 μM, 500 μM ATP): 30%
ATPase activity of HspD observed (Hsp90 alone = 100%) ([1]; 13.5 mM peptide (highest concentration), HspD 2 μM, 500 μM ATP, mean ± SEM, n = 5, SEM): 38.50 ± 10.11%
inhibition of ATPase activity of HspD ([1]; 13.5 mM peptide, HspD 2 μM, 500 μM ATP): 60%
ATPase activity of new construct of HspD observed (Hsp90 alone = 100%) [2]: 50.60 ± 4.68%
KD of binding to HspD-NTD, in words [3]: lower micromolar range
kon ([3]; Bio-Layer Interferometry, peptide immobilized on AR2G biosensors, 1:1 Langmuir model, global fit, mean ± standard deviation, SD): 90.6 ± 46.6 M⁻¹ s⁻¹
Kd ([3]; SD): 28.2 ± 14.6 µM
inhibition of ATPase activity of human Hsp90 ([4]; 5 mM peptide): 30%
inhibition of ATPase activity of human Hsp90 ([4]; 10 mM peptide): 55%
ATPase activity of human Hsp90 remaining (Hsp90 alone = 100%) ([4]; 10 mM peptide, mean ± SEM, n = 2, SEM): 46.91 ± 12.05%

GRDLYDD [GRDLYDD, purchased synthetic peptide]
change in ATPase activity of HspD in the presence of the peptide ([1]; 100 μM-13.5 mM peptide, HspD 2 μM, 500 μM ATP, 37 °C, 1 h, γ-32P-ATP, TLC): no significant change
ATPase inhibition of HspD, in words ([1]; summary statement): no inhibition whatsoever

RELWDD (not fully specified) [modified hexapeptide Arg-Glu-Leu-Trp-Asp-Asp]
percent inhibition of ATPase activity of HspD (2 μM, 500 μM ATP) with rising peptide RELWDD, inhibition from 5 mM, 30% at 10 mM, highest at 13.5 mM [5]: 60%
percent inhibition of ATPase activity of human Hsp90 (2 μM) with rising peptide RELWDD, 30% at 5 mM, highest at 10 mM [6]: 55%
percent ATPase activity left of the new construct of HspD (pET-28a) with rising peptide RELWDD, at the highest concentration of 13.5 mM [7]: 50.6%

B1: heptapeptide Gly-Arg-Asp-Leu-Tyr-Asp-Asp (peptide)
peptide: GRDLYDD
notes: numbered from -14 to -8 starting from Gly; No peptide was added for the crystal; also called GRDLYDD; the peptide; source: for the ATPase assay: synthetic peptide, bought: Custom peptide synthesis, USV Limited, Mumbai
binding result [8]: binds
